Data as given in patent US20230263822A1, “MODULATION OF FACTOR 11 EXPRESSION” (Ionis Pharmaceuticals, Inc., priority 2008, published 2023).
Strand notation (5' to 3'): a small letter for the sugar, then the base; units joined by * are phosphorothioate-linked, units joined directly phosphodiester-linked; [ ] holds rarer units or linkages, { } end groups; capitals alone tell only the bases. e = 2'-O-(2-methoxyethyl) (MOE); [5mC] = 5-methylcytosine; d = 2'-deoxy (DNA)

How the values were obtained:
human Factor 11 mRNA [1] = test: Antisense inhibition of human Factor 11 in HepG2 cells, electroporation, 8,000 nM (Example 30); format: cell-based; settings: electroporation, 8,000 nM antisense oligonucleotide
Method in brief: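 HepG2 cells electroporated with 8,000 nM 5-10-5, 5-8-5 or 6-8-6 MOE gapmers (phosphorothioate, 5-methylcytidine), ~24 h. Factor 11 mRNA quantified by qRT-PCR, normalised to RIBOGREEN total RNA. Reported as percent inhibition versus untreated cells.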

human Factor 11 mRNA [2] = test: Antisense inhibition of human Factor 11 in HepG2 cells by microwalk gapmers, lipofectin, 75 nM (Example 3); format: cell-based; settings: HepG2 cells, lipofectin, gapmers targeted to nucleobases 1275 to 1318 of SEQ ID NO: 1
Method in brief: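 HepG2 cells (10,000/well) were transfected via lipofectin with 75 nM 20-mer MOE gapmers (phosphorothioate, 5-methyl-C) for about 24 h. Factor 11 mRNA was measured by qRT-PCR, normalized to RIBOGREEN total RNA, and given as percent inhibition versus untreated cells.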

[3] = parameters: species or system Sprague-Dawley rats; settings: rat, in vivo, sc, 20 mg/kg
Experimental: The concentration of the full-length oligonucleotide as well as the total oligonucleotide concentration (including the degraded form) was measured. The method used is a modification of previously published methods (Leeds et al., 1996; Geary et al., 1999) which consist of a phenol-chloroform (liquid-liquid) extraction followed by a solid phase extraction. An internal standard (ISIS 355868, a 27-mer 2′-O-methoxyethyl modified phosphorothioate oligonucleotide, […], designated herein as SEQ ID NO: 270) was added prior to extraction. […] The results are presented in Tables 91 and 92, expressed as μg/g liver or kidney tissue. Half-lives were then calculated using WinNonlin software ([…]).

[4] = Viscosity of ISIS antisense oligonucleotides, micro-viscometer at 25 °C (Example 47); format: physicochemical; settings: for Concentration: concentration of the viscosity sample, UV reading at 260 nM at 85° C.; for Viscosity: in water, micro-viscometer at 25° C., at the concentration of the same line
Experimental: The viscosity of antisense oligonucleotides targeting human Factor 11 was measured with the aim of screening out antisense oligonucleotides which have a viscosity more than 40 cP at a concentration of 165-185 mg/mL.
ISIS oligonucleotides (32-35 mg) were weighed into a glass vial, 120 μL of water was added and the antisense oligonucleotide was dissolved into solution by heating the vial at 50° C. Part of (75 μL) the pre-heated sample was pipetted to a micro-viscometer (Cambridge). The temperature of the micro-viscometter was set to 25° C. and the viscosity of the sample was measured. Another part (20 μL) of the pre-heated sample was pipetted into 10 mL of water for UV reading at 260 nM at 85° C. (Cary UV instrument).

[5] = parameters: species or system CD1 mice; settings: mouse, in vivo, sc, 50 mg/kg
Experimental: The concentration of the full-length oligonucleotide was measured. The method used is a modification of previously published methods (Leeds et al., 1996; Geary et al., 1999) which consist of a phenol-chloroform (liquid-liquid) extraction followed by a solid phase extraction. An internal standard (ISIS 355868, a 27-mer 2′-O-methoxyethyl modified phosphorothioate oligonucleotide, […], designated herein as SEQ ID NO: 270) was added prior to extraction. […] The results are presented in Table 85 expressed as μg/g liver tissue.

Factor 11 protein = Factor 11 protein in monkey plasma by sandwich ELISA (Example 46); format: in vivo, cynomolgus monkeys; settings: 25 mg/kg subcutaneously
Experimental: (§1) Groups, each consisting of two male and two female monkeys, were injected subcutaneously with 25 mg/kg of ISIS 416850, ISIS 449709, ISIS 445522, ISIS 449710, ISIS 449707, ISIS 449711, ISIS 449708, 416858, and ISIS 445531. Antisense oligonucleotide was administered to the monkeys at 25 mg/kg three times per week for week 1 and 25 mg/kg twice per week for weeks 2 to 8. A control group, consisting of two male and two female monkeys was injected subcutaneously with PBS according to the same dosing regimen. Body weights were taken 14 days and 7 days before the start of treatment and were then measured weekly throughout the treatment period. Blood samples were collected 14 days and 5 days before the start of treatment and subsequently several times during the dosing regimen for PT and aPTT measurements, and measurement of various hematologic factors. On day 55, the monkeys were euthanized by exsanguination while under deep anesthesia, and organs harvested for further analysis.
Plasma samples from all monkey groups taken on different days were analyzed by a sandwich-style ELISA assay (Affinity Biologicals Inc.) using an affinity-purified polyclonal anti-Factor 11 antibody as the capture antibody and a peroxidase-conjugated polyclonal anti-Factor 11 antibody as the detecting antibody. Monkey plasma was diluted 1:50 for the assay. Peroxidase activity was expressed by incubation with the substrate o-phenylenediamine. The color produced was quantified using a microplate reader at 490 nm and was considered to be proportional to the concentration of Factor 11 in the samples.
The results are presented in Table 147, expressed as percentage reduction relative to that of the PBS control.

Factor 11 mRNA = Factor 11 mRNA in cynomolgus monkey liver, day 55 (Example 46); format: in vivo, cynomolgus monkeys; settings: 25 mg/kg subcutaneously, primer probe set LTS00301
Experimental: as §1
On day 55, RNA was extracted from liver tissue for real-time PCR analysis of Factor 11 using primer probe set LTS00301. Results are presented as percent inhibition of Factor 11, relative to PBS control.

human Factor 11 mRNA [6] = test: Dose-dependent inhibition of human Factor 11 in HepG2 cells, electroporation 375-12,000 nM (Example 32); format: cell-based; settings: for Percent inhibition of Factor 11 mRNA at 375 nM / Percent inhibition of Factor 11 mRNA at 750 nM / IC50: electroporation; for Percent inhibition of Factor 11 mRNA at 375 nM / Percent inhibition of Factor 11 mRNA at 750 nM / Percent inhibition of Factor 11 mRNA at 1,500 nM / Percent inhibition of Factor 11 mRNA at 3,000 nM / Percent inhibition of Factor 11 mRNA at 6,000 nM / Percent inhibition of Factor 11 mRNA at 12,000 nM: approx. 16 hours, relative to untreated control cells; for Percent inhibition of Factor 11 mRNA at 1,500 nM: electroporation, 1,500 nM; for Percent inhibition of Factor 11 mRNA at 3,000 nM: electroporation, 3,000 nM; for Percent inhibition of Factor 11 mRNA at 6,000 nM: electroporation, 6,000 nM; for Percent inhibition of Factor 11 mRNA at 12,000 nM: electroporation, 12,000 nM; for IC50: Factor 11 mRNA expression
Experimental: These gapmers were tested at various doses in HepG2 cells. Cells were plated at a density of 20,000 cells per well and transfected using electroporation with 375 nM, 750 nM, 1,500 nM, 3,000 nM, 6,000 nM and 12,000 nM concentrations of antisense oligonucleotide, as specified in Table 47. After a treatment period of approximately 16 hours, RNA was isolated from the cells and Factor 11 mRNA levels were measured by quantitative real-time PCR. Human Factor 11 primer probe set RTS 2966 was used to measure mRNA levels. Factor 11 mRNA levels were adjusted according to total RNA content, as measured by RIBOGREEN. Results are presented as percent inhibition of Factor 11, relative to untreated control cells.
ISIS 416850, ISIS 416858, ISIS 445522, and ISIS 445531 (see Table 45 above) were re-tested in vitro along with the microwalk gapmers under the same conditions described above.
The first two listed gapmers in Table 47 are the original gapmers (ISIS 416850 and ISIS 416858) from which the remaining gapmers were designed via microwalk and are designated by an asterisk.

Row | Substance | Percent inhibition of human Factor 11 mRNA levels (human Factor 11 mRNA [1]) [%] | % inhibition (human Factor 11 mRNA [2]) [%] | Half-life of ISIS oligonucleotides in the liver and kidney [3] [days] | Concentration [4] [mg/mL] | Viscosity [4] [cP] | Half-Life in the liver [5] [days] | Inhibition of Factor 11 protein relative to the PBS control (percentage reduction) (Factor 11 protein; Day 10, plasma) [%] | Inhibition of Factor 11 protein relative to the PBS control (percentage reduction) (Factor 11 protein; Day 17, plasma) [%] | Inhibition of Factor 11 protein relative to the PBS control (percentage reduction) (Factor 11 protein; Day 24, plasma) [%] | Inhibition of Factor 11 protein relative to the PBS control (percentage reduction) (Factor 11 protein; Day 31, plasma) [%] | Inhibition of Factor 11 protein relative to the PBS control (percentage reduction) (Factor 11 protein; Day 38, plasma) [%] | Inhibition of Factor 11 protein relative to the PBS control (percentage reduction) (Factor 11 protein; Day 45, plasma) [%] | Inhibition of Factor 11 protein relative to the PBS control (percentage reduction) (Factor 11 protein; Day 52, plasma) [%] | Inhibition of Factor 11 protein relative to the PBS control (percentage reduction) (Factor 11 protein; Day 55, plasma) [%] | Inhibition of Factor 11 protein relative to the PBS control (percentage reduction) (Factor 11 protein; Day −5, plasma) [%] | Inhibition of Factor 11 protein relative to the PBS control (percentage reduction) (Factor 11 protein; Day −14, plasma) [%] | % inhibition of Factor 11 mRNA in liver relative to the PBS control (Factor 11 mRNA) [%] | Percent inhibition of Factor 11 mRNA at 375 nM (human Factor 11 mRNA [6]) [%] | Percent inhibition of Factor 11 mRNA at 750 nM (human Factor 11 mRNA [6]) [%] | Percent inhibition of Factor 11 mRNA at 1,500 nM (human Factor 11 mRNA [6]) [%] | other results
1 | 416863 (antisense CAGCGGACGGCATTGGTGCA; 5-10-5 gapmer, further chemistry not given here) [compound 416863] | 86 | 83 | 20 | 165 | 9 | 19.8 |  |  |  |  |  |  |  |  |  |  |  |  |  |  | 
2 | 416867 (antisense ACTGGCAGCGGACGGCATTG; 5-10-5 gapmer, further chemistry not given here) [compound 416867] | 85 | 83 | 19 | 168 | 8 | 18.9 |  |  |  |  |  |  |  |  |  |  |  |  |  |  | 
3 | 416859 (antisense GACGGCATTGGTGCACAGTT; 5-10-5 gapmer, further chemistry not given here) [compound 416859] | 85 | 90 | 19 | 161 | 10 | 19.0 |  |  |  |  |  |  |  |  |  |  |  |  |  |  | 
4 | 416866 (antisense CTGGCAGCGGACGGCATTGG; 5-10-5 gapmer, further chemistry not given here) [compound 416866] | 84 | 88 | 16 | 166 | >100 | 16.0 |  |  |  |  |  |  |  |  |  |  |  |  |  |  | 
5 | 449709 (antisense eG*e[5mC]*eA*e[5mC]*dA*dG*dT*dT*dT*d[5mC]*dT*dG*dG*d[5mC]*eA*eG*eG*e[5mC]) [compound 449709] |  |  |  | 171 | 65 |  | 27 | 35 | 44 | 45 | 46 | 48 | 47 | 50 | 0 | 1 | 69 | 52 | 71 | 80 | Percent inhibition of Factor 11 mRNA at 3,000 nM (human Factor 11 mRNA [6]): 87%; Percent inhibition of Factor 11 mRNA at 6,000 nM (human Factor 11 mRNA [6]): 92%; Percent inhibition of Factor 11 mRNA at 12,000 nM (human Factor 11 mRNA [6]): 95%; IC50 (human Factor 11 mRNA [6]): 380 nM
6 | 449710 (antisense e[5mC]*eA*e[5mC]*dA*dG*dT*dT*dT*d[5mC]*dT*dG*dG*d[5mC]*eA*eG*eG) [compound 449710] |  |  |  | 186 | 7 |  | 10 | 14 | 17 | 25 | 20 | 23 | 4 | 24 | 0 | 1 | 52 | 2 | 21 | 52 | Percent inhibition of Factor 11 mRNA at 3,000 nM (human Factor 11 mRNA [6]): 70%; Percent inhibition of Factor 11 mRNA at 6,000 nM (human Factor 11 mRNA [6]): 82%; Percent inhibition of Factor 11 mRNA at 12,000 nM (human Factor 11 mRNA [6]): 87%; IC50 (human Factor 11 mRNA [6]): 1590 nM
